Reference: PMC5766618, “Paper-based inkjet bioprinting to detect fluorescence resonance energy transfer for the assessment of anti-inflammatory activity” (Scientific Reports, 2018)

Molecular target: cAMP-specific 3′,5′-cyclic phosphodiesterase 4B (PDE4B) (Homo sapiens, UniProt Q07343)
Sequence (Q07343 whole entry): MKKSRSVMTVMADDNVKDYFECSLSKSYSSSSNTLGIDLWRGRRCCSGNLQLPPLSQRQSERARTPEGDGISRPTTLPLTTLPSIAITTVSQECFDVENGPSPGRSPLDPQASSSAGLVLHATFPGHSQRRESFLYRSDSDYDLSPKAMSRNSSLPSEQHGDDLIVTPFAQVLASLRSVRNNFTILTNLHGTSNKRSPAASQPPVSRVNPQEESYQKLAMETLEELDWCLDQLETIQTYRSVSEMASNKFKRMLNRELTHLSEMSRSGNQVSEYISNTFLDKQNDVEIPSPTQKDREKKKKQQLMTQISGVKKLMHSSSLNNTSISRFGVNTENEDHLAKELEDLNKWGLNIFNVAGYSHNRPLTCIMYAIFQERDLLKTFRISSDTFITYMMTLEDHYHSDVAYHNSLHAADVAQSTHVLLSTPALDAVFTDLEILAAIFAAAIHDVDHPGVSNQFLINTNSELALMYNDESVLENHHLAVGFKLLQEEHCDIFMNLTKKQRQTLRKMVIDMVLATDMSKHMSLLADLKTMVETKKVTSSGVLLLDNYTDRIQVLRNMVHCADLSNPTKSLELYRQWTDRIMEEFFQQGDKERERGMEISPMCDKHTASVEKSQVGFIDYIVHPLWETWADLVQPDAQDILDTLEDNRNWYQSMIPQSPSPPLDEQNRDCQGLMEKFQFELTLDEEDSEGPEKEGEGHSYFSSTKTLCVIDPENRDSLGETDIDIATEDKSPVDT

COc1ccc(C2CNC(=O)C2)cc1OC1CCCC1 (stereo not shown) [roliparm]
inkjet-printed paper-based competitive FRET cAMP assay of PDE4B inhibition (IM50): 2.46e-13 mol
